Data from patent US12059393B2, “Compositions for topical treatment of radiation dermatitis” (Akos Biosciences, Inc, priority 2022, dated 2024).

Tested on: 3D in vitro skin model containing epidermal keratinocytes and dermal fibroblasts
Experiment: LDH cytotoxicity assay in 3D in vitro skin model
Assay type: cell-based
Conditions: positive control, no UV; defines 100% cytotoxicity
Method: A 3D in vitro skin model containing epidermal keratinocytes and dermal fibroblasts was used. Some tissues were irradiated with 200 mJ UVB/cm^2. Test materials were applied topically for 24 hours (after UVB exposure) and an MTT assay was used to check the viability of cells. The following treatment groups were used: • olive oil (no CBD); • CBD in olive oil in concentrations of 30, 60, 120, and 250 mg/mL; • No treatment; and • Triton-X® as positive control.
Cytotoxicity was assessed with a lactate dehydrogenase (LDH) assay using media collected from the wells of the tissues. Increased LDH activity is an indicator of damaged or dead cells.
The results are provided in the following Table A, with the untreated group defining 0% cytotoxicity and Triton-X defining 100% cytotoxicity. Lower cytotoxicity is better. * indicates p≤0.05 and ** indicates p≤0.01 statistical significance after performing unpaired t-test.

With Triton-X the “Cytotoxicity (%)” value was 100%.
